This is an account of results in patent publication US20150073330A1, “ALZHEIMER'S DISEASE TREATMENT WITH MULTIPLE THERAPEUTIC AGENTS DELIVERED TO THE OLFACTORY REGION THROUGH A SPECIAL DELIVERY CATHETER AND IONTOPHORESIS” (Wedge Therapeutics, LLC, priority 2012, published 2015).

The conditions of series [1]: in vivo; cited from earlier work.
The subject of series [2] is patients with depression associated with neurodegenerative diseases. The series is described as follows: Intranasal ORE ketamine in patients with depression.
The conditions of series [3]: cited from earlier work.
In series [4] the test system is patients with impaired cognition, depression, PTSD, stroke, concussion, brain injury. The series is described as follows: ORE delivery of insulin alone or combined in impaired cognition, depression, PTSD, stroke, concussion and brain injury. Type of series: in vivo, human. As to conditions: olfactory mucosal delivery; declining memory in the aged, Parkinson's, depression of many causes.
Source text: We also provided the home therapy kit with these therapeutic agents and trained them in the method of delivery to ORE, so that they can administer on their own. Some of the patients received hyperbaric oxygen therapy also.

The test system of series [5] is students taking the comprehensive examination and test. As to the kind of experiment: ORE insulin in students before the comprehensive examination. Format: in vivo, human. As to conditions: 2-4 IU each side of the nose to the ORE, 1-2 hours before the examination, compared to controls. The protocol:
In a study of students taking the comprehensive examination and test, we prescribed 2-4 IU insulin instilled on each sides of the nose delivered to the ORE in supine position, 1-2 hours before the examination using our delivery device. […] We are planning an expanded study and to analyze statistically to report its positive significance and its use in public speakers (T. R. Shantha, use of olfactory mucosal insulin to enhance the memory and recall before student examinations, written tests and before presentations in front of audience at meetings. Expanded study-under preparation.).

For series [6] the following is noted: cited from earlier work. This is another data set of the same source.
The test system of series [7] is adults with AD and amnestic mild cognitive impairment. As to conditions: cited from earlier work.
For series [8], the system named is receptors in the hippocampus and the frontal cortex. The conditions noted are these: rodent models, intranasal; cited from earlier work.
Series [9] relates to MCF-7 Human Breast Cancer Cells. The conditions noted are these: MCF-7 cells; cited from earlier work.
The subject of series [10] is patients with Lyme disease, senile type dementia and early Alzheimer's disease. The series is described as follows: 2-4-dinitrophenol in Lyme disease, senile type dementia and early Alzheimer's disease. Format: in vivo, human. The conditions noted are these: minuscule dose. An excerpt: Exactly how production and aggregation of the beta amyloid peptide gives rise to the pathology of AD even now not known. Accumulation of aggregated amyloid fibrils, which are believed to be the toxic form of the protein responsible for disrupting the cell's calcium ion homeostasis, induces programmed cell death (apoptosis). It known that Aβ selectively builds up in the mitochondria in the cells of Alzheimer's-affected brains, and it inhibits certain enzyme functions and the utilization of glucose by neurons (Chen X, Yan S D. 2006. “Mitochondrial Aβ: a potential cause of metabolic dysfunction in Alzheimer's disease”. IUBMB Life 58 (12): 686-94.). […] We had to discontinue the study due to federal restriction on such use that is not FDA approved.

The conditions of series [11]: cutaneous T-cell lymphoma, 300-400 mg per m^2 per day for eight weeks; cited from earlier work.
Series [12] has as its system amyloid beta. The conditions noted are these: mice, cited from earlier work.
In series [13] the target is T1, TNF-alpha (Homo sapiens, UniProt P01375).
T1 construct: endogenous in cells; host or cells: AD patients (in vivo)
The conditions noted are these: AD patients; cited from earlier work.

In series [14] the target is T1, TNF-alpha. As to the kind of experiment: Etanercept administration in AD patients by different routes. As to conditions: compared to perispinal, epispinal or interspinal routes. Format: in vivo. An excerpt: CNS Drugs 2009; 23 (9): 713-725. Richard C. Chou, Michael A. Kane, Shiva Gautam and Sanjay Ghirmire. Tumor Necrosis Factor Inhibition Reduces the Incidence of Alzheimer's disease in Rheumatoid Arthritis Patients. Abstracts of the American College of Rheumatology, Nov. 8, 2010, Atlanta Ga., Presentation No. 640). […] It is transported to the CNS through the CSF, not by direct spread by cervical vertebral venous system as perceived (Shantha T R and Evans J A: Arachnoid Villi in the Spinal Cord, and Their Relationship to Epidural Anesthesia. Anesthesiology 37:543-557, 1972).

Entries after “also recorded” stand apart in the source; their conditions may differ.

T1 sequence (P01375 77-233 limits assumed): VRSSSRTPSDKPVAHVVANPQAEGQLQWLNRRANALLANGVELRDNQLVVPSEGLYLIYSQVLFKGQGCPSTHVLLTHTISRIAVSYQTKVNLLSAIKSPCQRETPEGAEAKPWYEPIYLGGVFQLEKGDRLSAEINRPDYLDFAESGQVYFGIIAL

For the compound `CNC1(c2ccccc2Cl)CCCCC1=O` (stereo not shown) [ketamine], the “crossing of the blood brain barrier” value in series [1] was “easily crosses the BBB”. The “depressive condition in early cases” value in [2] (early cases, especially in dementia) is listed as “completely ameliorated the depressive condition”. The depression result in series [2] (intranasal delivery to the olfactory mucosa, neurodegenerative diseases, cancer, senility, Lyme disease and others) is listed as “reduced or relieved the depression”. For the same compound, the “hallucinogenic or other ill effect” value in series [2] (micro doses, 500 micrograms through the ORE) is reported as “no hallucinogenic or other ill effect; also recorded: no hallucinogenic effect”. Moreover, the “pH of the sterile solution for injection” value in series [3] (equivalent of 50 mg ketamine base per milliliter) is recorded as 3.5 to 5.5.
For insulin, the “depression, memory and cognition” value in series [4] was “reduced the depression, improved the memory, and increased cognition”. Further, in series [5], the “recall from memory during the test” value was “better and more rapid recall from memory”; the test scores result is on record as “scored higher in test scores”. Besides, the “time to increased insulin levels in cerebrospinal fluid (CSF)” value in series [6] (human studies, olfactory mucosal intranasal) is at most 60 min. In series [6] (normal adults and patients with Alzheimer's disease), the “effect on blood glucose” value was “without altering blood glucose”. In addition, the “story recall and functional status” value in [7] (3-week daily intranasal insulin, adults with AD and aMCI) is “improved delayed story recall and caregiver-rated functional status”. The “memory, attention and functioning” value in [7] (21 days olfactory mucosal insulin, early stage AD or mild cognitive impairment, vs placebo) is “enhanced memory, attention, and functioning compared with placebo”. Besides, the “time to binding to receptors in the hippocampus and the frontal cortex” value in series [8] was at most 60 min. Further, in [9], the “enhancement of the activity of methotrexate” value is recorded as 10,000 times.
Take `O=[N+]([O-])c1ccc(O)c([N+](=O)[O-])c1` [2-4-dinitrophenol]: the complications entry in series [10] is “without a single complication”. Further, the “pathological changes, memory and cognition” value in series [10] (unpublished data 2004) was “reduces these pathological changes and improves the memory and cognition”.
Turning to `N[C@@H](Cc1ccc(O)c(O)c1)C(=O)O` [levodopa], the “share that crosses BBB” value in [1] is listed as 5-10%.
`C=C(c1ccc(C(=O)O)cc1)c1cc2c(cc1C)C(C)(C)CCC2(C)C` [bexarotene]: the “adverse effects of high dose usage” value in series [11] is “hypertriglyceridemia, hypercholesterolemia and decreased high-density lipoprotein levels, as well as hypothyroidism”. The “ability to sense and respond to odors” value in series [12] (after bexarotene treatment) was “improvement in the ability to sense and respond to odors”. Besides, the nest making behavior entry in series [12] (by 72 hours after the bexarotene treatment) is recorded as “began to use paper to make nests”.
Consider `CNC(=O)Oc1ccc2c(c1)[C@]1(C)CCN(C)[C@@H]1N2C` [physostigmine], for which, in series [1], the “crossing of the blood brain barrier” value is “can cross the blood-brain barrier”.
With Etanercept, the “cognitive abilities after perispinal administration” value in [13] is given as “improve the cognitive abilities of AD patients”. The “effectiveness of cervical epidural and intranasal ORE delivery” value in series [14] was “much more effective”.
Turning to `CNC(=O)Oc1ccc2c(c1)[C@]1(C)CCN(C)[C@@H]1N2C` [Physostigmine Salicylate], the “pH of aqueous solution” value in [3] (0.5% aqueous solution) is on record as 5.8. For the same compound, in [3], the solubility in water entry is on record as “soluble in water”.
